Laboratory results from US20250295648A1 (priority 2024, published 2025).

Experiments:
PD patients with LID [1] = assay: Parkinson's Disease Questionnaire (PDQ39); assay type: in vivo, human; details: for PDQ39, mean change from baseline: per-protocol set
Source text: The PDQ39-item patient reported outcome of health status and quality of life and is the most frequently used disease-specific health status measure for PD. The questionnaire assesses how often people affected by PD experience difficulties across 8 dimensions of daily living. The standard PDQ39 assesses quality of life over the previous month. In this study the initial time period assessed at the Baseline Visit would be the previous month, with subsequent assessments for the intervening period since the last clinic visit (about 3 weeks). The 8 quality of life dimensions covered in the questionnaire are: • gg. Mobility (10 items #1-10) • hh. ADL (6 items #11-16) • ii. Emotional Well Being (6 items #17-22) • jj. Stigma (4 items #23-26) • kk. Social Support (3 items #27-29) • ll. Cognition (4 items #30-33) • mm. Communications (3 items #34-36) • nn. Bodily Discomfort (3 items #37-39) Individual items are rated by the patient on a scale of […]. Dimension scores are calculated on a scale of 0 to 100. The total score and individual dimension scores would be assessed for change from baseline.

[2] = both, human, in vivo
Source text: Based on the befiradol Cmax values observed in healthy male volunteers reported in WO 2016/005527, the sustained release compositions disclosed above in Tables 26-28 would be expected to provide Cmax values not less than those shown in Table 29 after a single oral administration to patients with Parkinson's disease. […] Therefore, the Cmax values in Table 29 for SR1-SR9 may be higher (e.g., by 10% or 20%) when administered to patients with Parkinson's disease since young adults rarely experience Parkinson's disease, which usually develops around age 60 or older.

PD patients with LID [3] = assay: Epworth Sleepiness Scale (ESS); assay type: in vivo, human; details: for ESS, mean change from baseline: per-protocol set
Source text: The ESS is a self-administered questionnaire with 8 questions. Respondents are asked to rate, on a 4-point scale (0-3), their usual chances of dozing off or falling asleep while engaged in 8 different activities. The ESS score (the sum of 8 item scores, 0-3) can range from 0 to 24. Ratings are based on the previous month, or in the case of this study, the intervening period since the previous clinic visit (about 3 weeks).

6-OH-DA lesioned rats = details: rat, in vivo; cited from earlier work
[4] = system: L-DOPA-induced dyskinesia in rat; details: 2-week treatment period; cited from earlier work
PD patients with LID [5] = assay: ICIQ Overactive Bladder Module (ICIQ-OAB); assay type: in vivo, human; details: for ICIQ-OAB, mean change from baseline: per-protocol set
Source text: The ICIQ-OAB provides a brief and robust measure to assess the impact of symptoms of overactive bladder on quality of life and outcome of treatment. It is a 4-item patient reported outcome covering 4 domains of bladder function: frequency, nocturia, urgency, and urge urinary incontinence. Each item is scored by frequency of 0-4, for a total score of 0-16. Ratings would be based on the previous month or since the last clinic visit. Efficacy would be assessed as change from the baseline total score.

PD patients with LID [6] = assay: Hospital Anxiety Depression Scale (HADS); assay type: in vivo, human
Source text: The HADS is used to determine the levels of anxiety and depression that a person is experiencing. The questionnaire consists of 7 items related to anxiety and 7 related to depression. Each item on the questionnaires is scored from 0-3, which means that a person can score between 0 and 21 for either anxiety or depression.

[7] = per-protocol set (n = 15), Baseline
[8] = per-protocol set, Δ D 28 (end of up-titration)

Question: What does the source list for `Cc1ccc(CNCC2(F)CCN(C(=O)c3ccc(F)c(Cl)c3)CC2)nc1` [NLX-112, (3-chloro-4-fluoro-phenyl)-[4-fluoro-4-{[(5-methyl-pyridin-2-ylmethyl)-amino]-methyl}piperidin-1-yl]methanone]?
Answer: quality of life (PDQ39 score) (PD patients with LID [1]; Days 28 or 42): no consistent statistically significant effect; PDQ39, mean (PD patients with LID [1]; [7]): 18.7; PDQ39, mean change from baseline (PD patients with LID [1]; Δ D 28 (end of up-titration)): −1.5; PDQ39, mean change from baseline (PD patients with LID [1]; Δ D 42 (end of stable dosing)): −0.6; Cmax in female subjects, higher than males [2]: 20%-40; sleepiness (ESS) (PD patients with LID [3]; Days 28 or 42): no consistent statistically significant effect; ESS, mean (PD patients with LID [3]; [7]): 8.3; ESS, mean change from baseline (PD patients with LID [3]; Δ D 28 (end of up-titration)): −1.1; ESS, mean change from baseline (PD patients with LID [3]; Δ D 42 (end of stable dosing)): −0.9; rotation behavior (6-OH-DA lesioned rats): increases rotation behavior; antidyskinetic efficacy against L-DOPA-induced dyskinesia [4]: did maintain its antidyskinetic efficacy; incontinence (ICIQ-OAB) (PD patients with LID [5]; Days 28 or 42): no consistent statistically significant effect; ICIQ-OAB, mean (PD patients with LID [5]; [7]): 18.3; ICIQ-OAB, mean change from baseline (PD patients with LID [5]; Δ D 28 (end of up-titration)): 0.7; ICIQ-OAB, mean change from baseline (PD patients with LID [5]; Δ D 42 (end of stable dosing)): −0.8; anxiety and depression (HADS) (PD patients with LID [6]; Days 28 or 42): no consistent statistically significant effect; HADS (Anxiety), mean (PD patients with LID [6]; [7]): 4.5; HADS (Depression), mean (PD patients with LID [6]; [7]): 3.7; HADS (Anxiety), mean change from baseline (PD patients with LID [6]; [8]): −0.5; HADS (Depression), mean change from baseline (PD patients with LID [6]; [8]): −0.4; HADS (Depression), mean change from baseline (PD patients with LID [6]; per-protocol set, Δ D 42 (end of stable dosing)): −0.6
